The source of these data is patent US8193377B2, “(−)-epigallocatechin gallate derivatives for inhibiting proteasome” (The Hong Kong Polytechnic University, priority 2004, dated 2012).

Data set [1] has as its target T1, purified rabbit 20s proteasome (Oryctolagus cuniculus, UniProt G1T4Q9).
T1 construct: purchased Boston Biochem (Cambridge, Mass.)
T1 sequence (G1T4Q9 1-263): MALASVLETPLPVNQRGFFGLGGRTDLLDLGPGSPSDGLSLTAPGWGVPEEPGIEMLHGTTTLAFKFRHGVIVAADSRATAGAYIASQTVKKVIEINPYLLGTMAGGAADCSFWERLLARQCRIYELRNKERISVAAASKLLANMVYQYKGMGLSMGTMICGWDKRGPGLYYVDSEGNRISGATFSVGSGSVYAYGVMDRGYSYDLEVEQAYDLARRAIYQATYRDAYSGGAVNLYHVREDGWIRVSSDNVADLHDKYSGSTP
Briefly: Inhibition of chymotrypsin-like activity of purified 20S proteasome. It is filed as biochemical. In short, it runs like this:
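Purified rabbit 20S proteasome (0.5 μg) incubated 30 min with 40 μM Suc-Leu-Leu-Val-Tyr-AMC and compounds up to 25 μM, dissolved in DMSO. Chymotrypsin-like activity read by AMC fluorescence; IC50 derived from the concentration series.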

Data set [2] has as its target 20S prokaryotic proteasome (UniProt Q9P992). Briefly: Table 2: effects of tea polyphenols on 20S prokaryotic proteasome activities. The format is biochemical. The settings on record: Table 2, This work. Here is the method:
To further examine the effects of B-ring —OH group deletion on proteasome-inhibitory and cell death-inducing abilities, we synthesized several novel EGCG analogs with eliminated —OH groups on the B-ring as well as their putative prodrugs, the peracetate-protected counterparts. By using a purified 20S proteasome and a chymotrypsin-like fluorogenic substrate, the proteasome-inhibitory effects of the following unprotected polyphenol analogs are determined: […]

For data set [3], the target named is T2, proteasomal chymotrypsin-like activity in Jurkat T cells (Homo sapiens, UniProt P28074).
T2 construct: measurement of the proteasomal chymotrypsin-like activity in the prepared lysates; endogenous in cells; host or cells: Jurkat T cells (human leukemia)
T2 sequence (P28074 60-263): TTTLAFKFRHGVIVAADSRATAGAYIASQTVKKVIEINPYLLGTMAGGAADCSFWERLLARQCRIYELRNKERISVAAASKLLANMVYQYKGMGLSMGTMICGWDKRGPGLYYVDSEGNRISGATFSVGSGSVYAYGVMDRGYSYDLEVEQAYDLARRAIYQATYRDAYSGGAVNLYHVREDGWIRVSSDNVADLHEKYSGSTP
Briefly: Proteasomal chymotrypsin-like activity in intact Jurkat T cells / their lysates. The format is cell-based. The settings on record: Jurkat, 24 h, Jurkat T, read-out: inhibition of proteasome activity in intact cells. In short, it runs like this: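 Jurkat T cells were exposed to 25 μM compound for 12 or 24 h, and chymotrypsin-like activity was read in intact cells with a fluorogenic specific substrate. Alternatively, cells were treated at 25 μM for 4 and 24 h, then lysed, and lysate activity was measured with fluorogenic Suc-Leu-Leu-Val-Tyr-AMC.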

Data set [4] has as its system phosphorylated Akt (p-Akt). Briefly: Western blot for phosphorylated Akt in Jurkat T cells. It is filed as cell-based, human. Conditions: 25 μM, 24 h. Here is the method: (−)-EGCG and 1 were incubated with Jurkat T cells for 24 h at 5, 10 and 25 μM, followed by Western blot analysis using a specific antibody to phosphorylated Akt (FIG. 7). […] Actin was used as a loading control.

For data set [5], the system named is Jurkat T cells. Briefly: Trypan blue cell death assay in Jurkat T cells. The format is cell-based, human. Conditions: 10 μM, 24 h.
Data set [6] deals with LNCaP cells. As to the kind of experiment: Apoptotic morphological changes, phase contrast. It is filed as cell-based, human. Conditions: 25 μM, 24 h.
Data set [7] relates to LNCaP cells. As to the kind of experiment: Soft agar colony formation assay. The settings on record: 25 μM once at plating, 21 days. It is filed as cell-based, human.
In data set [8] the test system is VA-13 cells. Briefly: Nuclear staining (Hoechst) for apoptotic morphology, VA-13. It is filed as cell-based, human. Conditions: 25 μM. Here is the method:
After each drug treatment, both detached and attached VA-13 and WI-38 cells were stained Hoechst 33342 to assess for apoptosis. Briefly, cells were washed 2× in PBS, fixed for 1 h with 70% ethanol at 4° C., washed 3× in PBS, and stained with […] Hoechst for 30 min in the dark at room temperature. Detached cells were plated on a slide and attached cells were visualized on the plate with a fluorescent microscope at 10× or 40× resolution (Zeiss, Germany). Digital Scientific obtained images with AxioVision 4.1 and adjusted using Adobe Photoshop 6.0.
Next, apoptotic nuclear morphology is examined after treatment with natural (−)-EGCG, 2, and 2a (FIG. 12B). […] A comparison among all the protected analogs was then performed using 25 μM for 24 h. […] All of the protected analogs induced apoptosis in transformed (VA-13), but not normal (WI-38) cells (FIGS. 12B and 12C).

In data set [9] the test system is YT cells. Briefly: Western blot in non-transformed natural killer YT cells compared with Jurkat T cells. The format is cell-based, human. Conditions: 25 μM, 24 h. On the technique in general: In western blotting, separated proteins are transferred to a membrane and probed.
For data set [10] the following is noted: rats given 56 mg orally; cited from earlier work.
Data set [11] in a line: Stability test in RPMI 1640 culture medium, HPLC. The settings on record: 0.1 mM in RPMI, 37° C., pH around 8.
Experimental: The stability of 1 with (−)-EGCG in a culture medium (RMPI) is compared, which mimics the body fluid with a pH value around 8. (−)-EGCG or 1 at 0.1 mM was incubated in 1 mL RMPI at 37° C. at indicated times. At different time points, the medium was analyzed by HPLC for the amount of tested compound remaining.

Like-named read-outs stand apart in the source and are kept apart here.

Chain of 20S prokaryotic proteasome (Q9P992 whole entry): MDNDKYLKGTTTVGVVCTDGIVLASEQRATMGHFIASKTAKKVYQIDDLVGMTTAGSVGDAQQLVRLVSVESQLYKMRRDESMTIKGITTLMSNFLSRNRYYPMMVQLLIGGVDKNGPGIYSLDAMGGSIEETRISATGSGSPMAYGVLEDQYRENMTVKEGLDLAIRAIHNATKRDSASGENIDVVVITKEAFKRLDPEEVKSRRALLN

For orientation: inhibition means the change of the read-out against control, counted positive when it falls. The IC50 is the midpoint of a concentration-inhibition curve. In the case of `O=C(O[C@@H]1Cc2c(O)cc(O)cc2O[C@@H]1c1cc(O)c(O)c(O)c1)c1cc(O)c(O)c(O)c1` [(−)-EGCG, (−)-epigallocatechin-3-gallate, reference compound], the inhibition at 10 µM in data set [1] (10 μM, purified 20S proteasome, read-out: inhibition of proteasomal chymotrypsin-like activity) lay within 80 to 90%. The IC50 in [1] (Suc-Leu-Leu-Val-Tyr-AMC, 2 h incubation, Table 1, read-out: IC50 (μM), unprotected) amounted to 0.3 µM; in data set [1] (up to 25 μM, 30 min incubation, read-out: IC50), 0.2 µM; in data set [2] it was 0.3 µM. For the same molecule, the inhibition at 25 µM in [3] worked out at 31%. Moreover, the “reduction of p-Akt level (densitometry)” value in [4] is reported as 32%. The molecule also displayed a cell death in [5] of 5%. Also, the apoptotic morphological changes entry in data set [6] is on record as “enlarged, flattened cells”. In addition, in data set [7], the “colony formation in soft agar” value is reported as “significant decrease in colony formation”. Besides, the apoptotic nuclear morphology result in data set [8] (24 h) is reported as “little or no apoptosis”; in data set [8] (36 h), “did initiate apoptosis”. The “apoptosis (PARP cleavage), Jurkat T versus YT cells” value in data set [9] was “only Jurkat cells underwent apoptosis”. The “fraction of (−)-EGCG absorbed” value in [10] is given as 0.012%. In addition, the “time within which compound degraded in culture medium” value in data set [11] is not above 20 min.
